Structures are written as SMILES.

What all share (format): cell-based
Test [1] addresses EGFR(D770_N771insSVD) expressing Ba/F3 stable cell line (Homo sapiens, UniProt P00533, DUP768-770, cells depend on it). Nature of the test: Cellular proliferation (Alamar Blue) assay, EGFR(D770_N771insSVD) Ba/F3. To be noted: 72 hr, read-out: D770 IC50. In short, it runs like this:
(§1)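 Compound treatment lasted 72 h at 37 °C across a final 10-0.0005 μM range in 3-fold steps; cell growth was measured with Alamar Blue (3 h). Ba/F3 seeded at 15,000 and A431 at 5000 cells/well.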

In test [2] the target is EGFR (A767_dupASV) expressing Ba/F3 stable cell line (Homo sapiens, UniProt P00533, DUP767-769, cells depend on it). Nature of the test: Cellular proliferation (Alamar Blue) assay, EGFR (A767_dupASV) Ba/F3. To be noted: 72 hr, read-out: A767 IC50. Put shortly:
as §1

In the next test the test system is A431 cells. The test is described as follows: Cellular proliferation (Alamar Blue) assay, A431 cells. To be noted: Homo sapiens, A-431, 72 h, A431 cells; 72 hr; Alamar Blue; read-out: A431 IC50. Put shortly: as §1
The target in test [3] is EGFR (H773insNPH) expressing Ba/F3 stable cell line (Homo sapiens, UniProt P00533, DUP771-773, cells depend on it). The test is described as follows: Cellular proliferation (Alamar Blue) assay, EGFR (H773insNPH) Ba/F3. The conditions noted are these: 72 hr, read-out: NPH IC50. In short, it runs like this: as §1
EGFR (H773insNPH) expressing Ba/F3 stable cell line, sequence (P00533 with tags, fused parts or gaps DUP771-773): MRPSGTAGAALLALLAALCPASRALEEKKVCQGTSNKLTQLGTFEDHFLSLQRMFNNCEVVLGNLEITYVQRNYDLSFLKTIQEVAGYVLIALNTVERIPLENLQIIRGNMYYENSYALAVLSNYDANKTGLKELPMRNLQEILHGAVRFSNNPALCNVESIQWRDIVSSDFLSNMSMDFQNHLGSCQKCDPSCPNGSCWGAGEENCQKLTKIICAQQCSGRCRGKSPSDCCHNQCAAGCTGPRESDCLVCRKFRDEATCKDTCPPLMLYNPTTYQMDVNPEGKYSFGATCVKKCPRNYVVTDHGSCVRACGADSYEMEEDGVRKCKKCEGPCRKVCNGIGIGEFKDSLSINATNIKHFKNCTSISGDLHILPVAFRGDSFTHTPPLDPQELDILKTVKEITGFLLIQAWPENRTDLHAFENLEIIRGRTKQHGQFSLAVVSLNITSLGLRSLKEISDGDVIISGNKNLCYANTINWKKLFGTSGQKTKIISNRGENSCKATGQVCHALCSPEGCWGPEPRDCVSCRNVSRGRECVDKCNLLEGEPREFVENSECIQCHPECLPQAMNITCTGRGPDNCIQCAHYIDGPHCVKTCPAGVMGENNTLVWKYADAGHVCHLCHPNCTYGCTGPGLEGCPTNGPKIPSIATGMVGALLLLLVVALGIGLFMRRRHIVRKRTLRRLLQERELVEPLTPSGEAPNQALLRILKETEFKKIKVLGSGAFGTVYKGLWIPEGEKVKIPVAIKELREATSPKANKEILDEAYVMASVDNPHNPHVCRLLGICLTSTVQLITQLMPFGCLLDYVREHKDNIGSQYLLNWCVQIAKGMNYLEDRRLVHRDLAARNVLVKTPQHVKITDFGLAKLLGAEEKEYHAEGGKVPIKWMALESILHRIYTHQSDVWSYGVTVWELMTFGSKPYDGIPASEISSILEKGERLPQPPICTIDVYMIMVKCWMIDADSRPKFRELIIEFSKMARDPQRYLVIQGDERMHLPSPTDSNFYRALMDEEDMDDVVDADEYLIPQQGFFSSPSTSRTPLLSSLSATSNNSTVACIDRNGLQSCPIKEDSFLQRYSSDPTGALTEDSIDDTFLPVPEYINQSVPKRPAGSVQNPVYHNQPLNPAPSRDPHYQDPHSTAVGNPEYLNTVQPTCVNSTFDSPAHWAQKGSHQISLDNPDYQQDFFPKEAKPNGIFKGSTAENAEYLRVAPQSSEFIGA
Test [4] has as its target HER2 (A775_G776insYVMA) expressing Ba/F3 stable cell line (Homo sapiens, UniProt P04626, DUP772-775, cells depend on it). Nature of the test: Cellular proliferation (Alamar Blue) assay, HER2 (A775_G776insYVMA) Ba/F3. To be noted: HER2 (A775_G776insYVMA) Ba/F3 cells; 72 hr; Alamar Blue; read-out: YVMA IC50. In short, it runs like this: as §1

EGFR(D770_N771insSVD) expressing Ba/F3 stable cell line, sequence (P00533 with tags, fused parts or gaps DUP768-770): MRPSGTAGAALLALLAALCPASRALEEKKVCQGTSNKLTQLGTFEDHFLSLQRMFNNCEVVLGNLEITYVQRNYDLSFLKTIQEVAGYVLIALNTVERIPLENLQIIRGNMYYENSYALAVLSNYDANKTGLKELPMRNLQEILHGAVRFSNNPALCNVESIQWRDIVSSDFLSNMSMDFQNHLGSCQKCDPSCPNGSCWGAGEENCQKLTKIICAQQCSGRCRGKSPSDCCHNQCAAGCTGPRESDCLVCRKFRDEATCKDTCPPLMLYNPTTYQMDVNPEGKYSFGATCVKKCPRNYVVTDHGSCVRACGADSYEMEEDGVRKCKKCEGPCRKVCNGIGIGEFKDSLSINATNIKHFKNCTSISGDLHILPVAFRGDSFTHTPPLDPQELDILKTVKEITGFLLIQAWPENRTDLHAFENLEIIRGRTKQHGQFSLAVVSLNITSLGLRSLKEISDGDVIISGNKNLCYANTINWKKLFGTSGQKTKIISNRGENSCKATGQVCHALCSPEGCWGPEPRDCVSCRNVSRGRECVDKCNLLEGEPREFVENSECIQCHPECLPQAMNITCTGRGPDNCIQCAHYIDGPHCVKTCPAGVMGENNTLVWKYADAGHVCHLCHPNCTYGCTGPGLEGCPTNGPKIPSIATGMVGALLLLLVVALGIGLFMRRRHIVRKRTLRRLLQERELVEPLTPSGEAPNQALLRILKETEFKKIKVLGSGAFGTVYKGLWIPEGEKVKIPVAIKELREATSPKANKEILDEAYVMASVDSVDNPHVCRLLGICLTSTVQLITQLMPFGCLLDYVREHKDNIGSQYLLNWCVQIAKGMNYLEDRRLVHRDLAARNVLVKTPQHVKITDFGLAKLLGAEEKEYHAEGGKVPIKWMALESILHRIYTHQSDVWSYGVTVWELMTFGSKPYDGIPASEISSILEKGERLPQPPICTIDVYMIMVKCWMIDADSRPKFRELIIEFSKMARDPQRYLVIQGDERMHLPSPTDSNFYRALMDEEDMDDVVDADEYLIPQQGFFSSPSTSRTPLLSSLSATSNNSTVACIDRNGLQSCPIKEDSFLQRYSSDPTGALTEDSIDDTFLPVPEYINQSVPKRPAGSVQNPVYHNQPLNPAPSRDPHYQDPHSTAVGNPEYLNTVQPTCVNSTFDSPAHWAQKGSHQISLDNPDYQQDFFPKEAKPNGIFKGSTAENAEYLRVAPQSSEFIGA
EGFR (A767_dupASV) expressing Ba/F3 stable cell line, sequence (P00533 with tags, fused parts or gaps DUP767-769): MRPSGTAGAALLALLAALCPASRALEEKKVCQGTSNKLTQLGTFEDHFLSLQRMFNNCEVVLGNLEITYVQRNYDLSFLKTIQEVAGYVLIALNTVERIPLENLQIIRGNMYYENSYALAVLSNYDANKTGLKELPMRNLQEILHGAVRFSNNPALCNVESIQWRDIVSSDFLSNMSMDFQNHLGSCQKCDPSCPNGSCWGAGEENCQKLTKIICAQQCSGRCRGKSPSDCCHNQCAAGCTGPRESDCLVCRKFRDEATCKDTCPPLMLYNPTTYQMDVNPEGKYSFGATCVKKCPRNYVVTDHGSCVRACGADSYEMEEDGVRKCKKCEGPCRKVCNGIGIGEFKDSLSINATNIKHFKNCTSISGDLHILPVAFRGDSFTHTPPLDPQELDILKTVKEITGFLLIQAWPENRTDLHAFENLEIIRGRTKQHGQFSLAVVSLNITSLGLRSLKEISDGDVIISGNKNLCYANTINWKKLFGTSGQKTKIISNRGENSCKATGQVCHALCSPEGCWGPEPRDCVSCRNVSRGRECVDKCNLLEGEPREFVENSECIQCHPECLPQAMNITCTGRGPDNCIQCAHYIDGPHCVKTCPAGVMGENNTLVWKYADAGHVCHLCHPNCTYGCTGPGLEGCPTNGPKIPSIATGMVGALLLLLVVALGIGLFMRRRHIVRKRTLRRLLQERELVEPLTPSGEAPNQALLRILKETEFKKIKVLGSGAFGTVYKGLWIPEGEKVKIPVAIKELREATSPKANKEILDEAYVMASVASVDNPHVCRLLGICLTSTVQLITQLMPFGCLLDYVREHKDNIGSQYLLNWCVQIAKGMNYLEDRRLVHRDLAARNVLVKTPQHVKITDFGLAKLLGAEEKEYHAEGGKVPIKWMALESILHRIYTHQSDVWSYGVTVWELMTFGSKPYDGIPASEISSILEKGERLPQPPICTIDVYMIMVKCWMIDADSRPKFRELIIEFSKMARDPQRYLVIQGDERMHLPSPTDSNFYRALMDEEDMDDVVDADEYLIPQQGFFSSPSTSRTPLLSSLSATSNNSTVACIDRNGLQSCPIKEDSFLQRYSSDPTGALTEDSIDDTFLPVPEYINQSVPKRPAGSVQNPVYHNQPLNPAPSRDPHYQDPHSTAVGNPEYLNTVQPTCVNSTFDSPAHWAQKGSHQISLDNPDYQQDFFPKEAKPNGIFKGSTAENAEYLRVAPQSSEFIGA
HER2 (A775_G776insYVMA) expressing Ba/F3 stable cell line, sequence (P04626 with tags, fused parts or gaps DUP772-775): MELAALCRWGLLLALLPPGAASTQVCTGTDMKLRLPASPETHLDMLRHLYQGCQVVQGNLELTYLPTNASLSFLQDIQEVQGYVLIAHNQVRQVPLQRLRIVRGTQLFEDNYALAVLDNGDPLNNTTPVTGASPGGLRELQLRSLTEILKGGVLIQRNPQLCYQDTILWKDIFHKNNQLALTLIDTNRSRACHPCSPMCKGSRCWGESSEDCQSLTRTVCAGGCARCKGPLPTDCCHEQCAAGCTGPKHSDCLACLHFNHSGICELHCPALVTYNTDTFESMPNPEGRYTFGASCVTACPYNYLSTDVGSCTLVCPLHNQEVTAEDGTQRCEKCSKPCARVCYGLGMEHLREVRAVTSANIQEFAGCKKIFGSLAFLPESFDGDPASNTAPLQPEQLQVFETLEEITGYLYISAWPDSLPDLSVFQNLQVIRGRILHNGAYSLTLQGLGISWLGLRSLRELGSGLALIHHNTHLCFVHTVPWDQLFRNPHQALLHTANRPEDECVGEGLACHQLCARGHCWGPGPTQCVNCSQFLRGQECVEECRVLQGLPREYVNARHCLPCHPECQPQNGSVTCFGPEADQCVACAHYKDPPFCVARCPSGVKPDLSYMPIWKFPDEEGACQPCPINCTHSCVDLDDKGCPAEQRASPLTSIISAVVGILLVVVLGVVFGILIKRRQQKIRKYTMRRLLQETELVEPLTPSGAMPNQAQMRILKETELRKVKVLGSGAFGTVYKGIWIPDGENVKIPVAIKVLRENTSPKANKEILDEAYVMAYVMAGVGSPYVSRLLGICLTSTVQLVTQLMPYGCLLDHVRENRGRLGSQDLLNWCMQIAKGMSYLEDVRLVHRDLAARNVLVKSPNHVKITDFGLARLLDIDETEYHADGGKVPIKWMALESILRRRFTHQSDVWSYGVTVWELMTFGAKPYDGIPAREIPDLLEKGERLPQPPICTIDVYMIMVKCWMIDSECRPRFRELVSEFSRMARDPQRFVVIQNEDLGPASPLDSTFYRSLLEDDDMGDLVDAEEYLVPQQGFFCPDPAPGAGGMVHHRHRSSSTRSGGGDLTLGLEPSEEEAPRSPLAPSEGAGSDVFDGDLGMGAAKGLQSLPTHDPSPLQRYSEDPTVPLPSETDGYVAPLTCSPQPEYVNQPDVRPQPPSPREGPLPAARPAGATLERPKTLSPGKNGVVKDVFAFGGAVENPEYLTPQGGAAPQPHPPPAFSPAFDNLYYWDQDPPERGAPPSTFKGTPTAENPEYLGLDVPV

In the case of `C=CC(=O)Nc1ccc(F)c(Nc2nc(Nc3cnn(CCN(C)C)c3)ncc2-c2ccc(Br)c(Cl)c2)c1` [Compound 89, N-(3-((5-(4-bromo-3-chlorophenyl)-2-((1-(2-(dimethylamino)ethyl)-1H-pyrazol-4-yl)amino)pyrimidin-4-yl)amino)-4-fluorophenyl)acrylamide], the GI50 in test [1] worked out at 0.102 µM; in test [2], 0.108 µM; in test [3] it was 0.056 µM; in test [4] it was 0.123 µM. In addition, the half-inhibitory concentration (IC50) with A431 cells was determined as 0.343 µM.

Consider `C=CC(=O)Nc1ccc(F)c(Nc2nc(Nc3cnn(C)c3)ncc2-c2ccc(OC)c(Cl)c2)c1` [Compound 3, N-(3-((5-(3-chloro-4-methoxyphenyl)-2-((1-methyl-1H-pyrazol-4-yl)amino)pyrimidin-4-yl)amino)-4-fluorophenyl)acrylamide], for which the GI50 in test [1] is 0.09 µM; in test [2], 0.091 µM; in test [3], 0.103 µM; in test [4] it was 0.432 µM. The concentration for half-maximal inhibition (IC50) in the test with A431 cells was 2.32 µM.

For the compound `C=CC(=O)Nc1ccc(F)c(Nc2nc(Nc3cnn(C)c3)ncc2-c2ccc(OC(F)F)c(F)c2)c1` [Compound 16, N-(3-((5-(4-(difluoromethoxy)-3-fluorophenyl)-2-((1-methyl-1H-pyrazol-4-yl)amino)pyrimidin-4-yl)amino)-4-fluorophenyl)acrylamide], the GI50 in test [1] is 0.01 µM; in test [2] it was 0.009 µM; in test [3] it was 0.024 µM; in test [4], 0.043 µM. In addition, in the test on A431 cells, the IC50 is 0.46 µM.

Turning to `C=CC(=O)Nc1ccc(F)c(Nc2nc(Nc3cnn(C)c3)ncc2-c2ccc(Cl)c(Cl)c2)c1` [Compound 50, N-(3-((5-(3,4-dichlorophenyl)-2-((1-methyl-1H-pyrazol-4-yl)amino)pyrimidin-4-yl)amino)-4-fluorophenyl)acrylamide], the GI50 is 0.032 µM in test [1], 0.026 µM in test [2], 0.061 µM in test [3] and 0.086 µM in test [4]. The IC50 in the test with A431 cells is 0.07 µM.

For the compound `C=CC(=O)Nc1ccc(F)c(Nc2nc(Nc3cnn(CCO)c3)ncc2-c2ccc(F)c(Cl)c2)c1` [Compound 62, N-(3-((5-(3-chloro-4-fluorophenyl)-2-((1-(2-hydroxyethyl)-1H-pyrazol-4-yl)amino)pyrimidin-4-yl)amino)-4-fluorophenyl)acrylamide], the GI50 in test [1] is 0.075 µM; in test [2] it was 0.08 µM; in test [3], 0.091 µM; in test [4] it was 0.103 µM. The half-inhibitory concentration (IC50) in the test on A431 cells was 1 µM.

Turning to `C=CC(=O)Nc1ccc(F)c(Nc2nc(Nc3cnn(C)c3)ncc2-c2cnc(Cl)c(Cl)c2)c1` [Compound 17, N-(3-((5-(5,6-dichloropyridin-3-yl)-2-((1-methyl-1H-pyrazol-4-yl)amino)pyrimidin-4-yl)amino)-4-fluorophenyl)acrylamide], the GI50 in test [1] worked out at 0.035 µM; in test [2] it was 0.032 µM; in test [3] it was 0.096 µM; in test [4], 0.042 µM. The concentration for half-maximal inhibition (IC50) with A431 cells worked out at 0.075 µM.

Turning to `C=CC(=O)Nc1cccc(Nc2nc(Nc3cnn(C)c3)ncc2-c2cc(F)cc(Cl)c2)c1` [Compound 66, N-(3-((5-(3-chloro-5-fluorophenyl)-2-((1-methyl-1H-pyrazol-4-yl)amino)pyrimidin-4-yl)amino)phenyl)acrylamide], the GI50 in test [1] is 0.015 µM; in test [2], 0.026 µM; in test [3], 0.014 µM; in test [4], 0.047 µM. Further, the IC50 with A431 cells is 0.055 µM.

For the origin of these results see US20230416232A1, “PYRIMIDINE COMPOUNDS, COMPOSITIONS, AND MEDICINAL APPLICATIONS THEREOF” (Blueprint Medicines Corporation, priority 2020, published 2023).
